Data set [1] concerns wild-type M. tuberculosis. Description: microbe, parasite or virus in culture. It is filed as cell-based, Mycobacterium tuberculosis.
The next data set is described as follows: in vitro. To be noted: for microsomal clearance / stability (in words): human microsomes; for CLint scaled at 0.5 µM: human, microsomes, pH 7.4, human Clint. It counts as in vitro ADME, human. On the procedure: Compounds (0.5 µM) were incubated with 0.25 mg/mL liver microsomal proteins at pH 7.4 at 37 °C. Reactions were initiated with […] and samples taken at 0, 5, 10, 15, 20 and 30 min. The reaction was stopped by addition of 95% ACN/5% MeOH containing an internal standard. Samples were combined in compound groups of six pre-sorted by mono molecular weight and analyzed by LC/MS/MS. The peak area ratios (analyte peak area/IS peak area) were converted to % remaining using the area ratio at time 0 as 100%. The. half-life (T ½) and intrinsic clearance (mCLint) were calculated.

[2] abbreviates: Mycobacterium tuberculosis, 120 h, read-out: MIC.
Where [3] appears, read: Mycobacterium tuberculosis, read-out: MIC.
[4] abbreviates: Mycobacterium tuberculosis, Table 5, read-out: Wild-type MIC.

In brackets after ≈: the same amount, converted by molar mass. Counter-ions that a name gives are not always drawn. Like-named read-outs stand apart in the source and are kept apart here.

What is called CLint scaled is a measure of how fast metabolising enzymes remove a compound, apart from limits set by blood flow. Read a low CLint scaled as greater metabolic stability. Broadly, the IC90 is the concentration at which the effect reaches the 90% level. Read a low IC90 as greater potency.

In the case of `O=C(NCCc1cccc(C(F)(F)F)c1)C1(c2ccccc2)CCC1` [PCB-7, 1-phenyl-N-(3-(trifluoromethyl)phenethyl)cyclobutane-1-carboxamide], the MIC in data set [1] (setting [2]) worked out at 3.7 ± 2.7 µM (≈ 1.29 µg/mL). Moreover, in data set [1] (setting [3]), the MIC came out at 3.7 µM (≈ 1.29 µg/mL). In “in vitro”, the “microsomal clearance / stability (in words)” value is given as “increased clearance” and the CLint scaled at 0.5 µM was 270 L/h/kg.

Take `O=C(CNC(=O)C1(c2ccccc2)CCC1)c1cccc(Br)c1` [PCB-12, N-(2-(3-bromophenyl)-2-oxoethyl)-1-phenylcyclobutane-1-carboxamide]: the “anti-tubercular activity (in words)” value in data set [1] is “tolerated”. Moreover, in data set [1] (setting [2]), the MIC was found to be 7.3 ± 0.3 µM (≈ 2.72 µg/mL). Also, in “in vitro”, the “microsomal clearance / stability (in words)” value was “did not improve clearance” and the CLint scaled at 0.5 µM is 47.3 L/h/kg.

As to `O=C(NCCc1ccc(Br)cc1)C1(c2ccccc2)CCC1` [PCB-6, N-(4-bromophenethyl)-1-phenylcyclobutane-1-carboxamide], the MIC in data set [1] (setting [2]) is 5.4 ± 0.3 µM (≈ 1.93 µg/mL); in data set [1] (setting [3]), 5.4 µM (≈ 1.93 µg/mL). The molecule further had an intrinsic clearance (CLint scaled) at 0.5 µM in “in vitro” of 35.6 L/h/kg.

In the case of `COc1ccc(CCNC(=O)C2(c3ccc(F)cc3)CCC2)cc1Br` [PCB-26, N-(3-bromo-4-methoxyphenethyl)-1-(4-fluorophenyl)cyclobutane-1-carboxamide], in data set [1] (setting [2]), the MIC turned out to be 2.8 ± 0.1 µM (≈ 1.14 µg/mL). The MIC in data set [1] (setting [3]) was 2.8 µM (≈ 1.14 µg/mL). Besides, in the data set “in vitro”, the “microsomal clearance / stability (in words)” value was “at the expense of clearance” and the CLint scaled at 0.5 µM was 149 L/h/kg.

In the case of `O=C(NCCc1cccc(Br)c1)C1(c2ccccc2)CCC1` [PCB-5, N-(3-bromophenethyl)-1-phenylcyclobutane-1-carboxamide], the MIC in data set [1] (setting [2]) is 4.9 ± 1.7 µM (≈ 1.76 µg/mL); in data set [1] (setting [3]), 4.9 µM (≈ 1.76 µg/mL). The same molecule gave a CLint scaled at 0.5 µM in the data set “in vitro” of 236 L/h/kg.

Take `O=C(NCCc1ccc2c(c1)OCO2)C1(c2ccccc2)CCC1` [PCB-4, N-(2-(benzo[d][1,3]dioxol-5-yl)ethyl)-1-phenylcyclobutane-1-carboxamide]: in data set [1], the “anti-tubercular activity (in words)” value is reported as “retained anti-tubercular activity”. For the same molecule, in data set [1] (setting [2]), the MIC is 12 ± 2.6 µM (≈ 3.88 µg/mL). Also, in “in vitro”, the “microsomal clearance / stability (in words)” value was “intermediate clearance” and the CLint scaled at 0.5 µM is 52.1 L/h/kg.

Turning to `O=C(NCC(O)c1ccc2c(c1)OCO2)C1(c2ccccc2)CCC1` (stereo not shown) [PCB-11, N-(2-(benzo[d][1,3]dioxol-5-yl)-2-hydroxyethyl)-1-phenylcyclobutane-1-carboxamide], in data set [1] (setting [2]), the MIC is over 20 µM. In addition, in data set [1] (setting [3]), the MIC is over 20 µM. In the data set “in vitro”, the “microsomal clearance / stability (in words)” value is recorded as “lower clearance” and the CLint scaled at 0.5 µM is 9.66 L/h/kg.

`O=C(NCCc1cccc(Br)c1)C1(c2ccccc2)COC1` [PCB-25, N-(3-bromophenethyl)-3-phenyloxetane-3-carboxamide]: the MIC in data set [1] (setting [2]) stood at 12 ± 2.8 µM (≈ 4.32 µg/mL). For the same molecule, the MIC in data set [1] (setting [3]) is 12 µM (≈ 4.32 µg/mL). Further, in the data set “in vitro”, the “microsomal clearance / stability (in words)” value is on record as “some improvement in clearance” and the CLint scaled at 0.5 µM is 20 L/h/kg.

On to `O=C(NCCc1cccc(Br)c1)C1(c2ccccc2F)CCC1` [PCB-20, N-(3-bromophenethyl)-1-(2-fluorophenyl)cyclobutane-1-carboxamide], for which, in data set [1] (setting [2]), the MIC was 5.5 ± 2.1 µM (≈ 2.07 µg/mL). Also, in the data set “in vitro”, the “microsomal clearance / stability (in words)” value is recorded as “very poor microsomal stability” and the CLint scaled at 0.5 µM was 263 L/h/kg.

With `O=C(NCCc1cccc(Br)c1)C1(c2ccc(Cl)cc2Cl)CCC1` [PCB-18, N-(3-bromophenethyl)-1-(2,4-dichlorophenyl)cyclobutane-1-carboxamide], the “anti-tubercular activity (in words)” value in data set [1] is “low antitubercular activity”. For the same molecule, the MIC in data set [1] (setting [2]) turned out to be 13 ± 5 µM (≈ 5.55 µg/mL). Besides, in the data set “in vitro”, the “microsomal clearance / stability (in words)” value is “very low stability” and the CLint scaled at 0.5 µM is 1690 L/h/kg.

Turning to `O=C(NCCc1cccc(Br)c1)C1(c2cccc(Cl)c2)CCC1` [PCB-16, N-(3-bromophenethyl)-1-(3-chlorophenyl)cyclobutane-1-carboxamide], the “anti-tubercular activity (in words)” value in data set [1] is “little change”. Besides, the MIC in data set [1] (setting [2]) is 5 ± 1.6 µM (≈ 1.96 µg/mL). In addition, in data set [1] (setting [4]), the MIC was determined as 5 µM (≈ 1.96 µg/mL). Besides, in “in vitro”, the “microsomal clearance / stability (in words)” value is given as “clearances increased” and the CLint scaled at 0.5 µM is 552 L/h/kg.

Regarding `CN(CCc1cccc(Br)c1)C(=O)C1(c2ccccc2)CCC1` [PCB-14, N-(3-bromophenethyl)-N-methyl-1-phenylcyclobutane-1-carboxamide], the “anti-tubercular activity (in words)” value in data set [1] is “inactive”. Also, the MIC in data set [1] (setting [2]) is over 20 µM. For the same molecule, in “in vitro”, the “microsomal clearance / stability (in words)” value is recorded as “highly metabolized” and the CLint scaled at 0.5 µM is 447 L/h/kg.

In the case of `Cc1ccccc1C1(C(=O)NCCc2cccc(C(F)(F)F)c2)CCC1` [PCB-29, 1-(o-tolyl)-N-(3-(trifluoromethyl)phenethyl)cyclobutane-1-carboxamide], in data set [1] (setting [2]), the MIC came to 0.45 ± 0.01 µM (≈ 0.163 µg/mL). The MIC in data set [1] (setting [3]) is 0.45 µM (≈ 0.163 µg/mL). Also, in the data set “in vitro”, the “microsomal clearance / stability (in words)” value was “increase in clearance” and the CLint scaled at 0.5 µM is 883 L/h/kg.

In the case of `O=C(NCCc1cccc(C(F)(F)F)c1)C1(c2ccc(F)cc2)CCC1` [PCB-30, 1-(4-fluorophenyl)-N-(3-(trifluoromethyl)phenethyl)cyclobutane-1-carboxamide], the “anti-tubercular activity (in words)” value in data set [1] is on record as “slight reduction in activity”. Besides, the MIC in data set [1] (setting [2]) is 0.99 ± 0.3 µM (≈ 0.362 µg/mL). In addition, in the data set “in vitro”, the “microsomal clearance / stability (in words)” value was “significantly improved clearance” and the intrinsic clearance (CLint scaled) at 0.5 µM is 121 L/h/kg.

For the molecule `O=C(NCCc1cc(Br)ccn1)C1(c2ccccc2)CCC1` [PCB-8, N-(2-(4-bromopyridin-2-yl)ethyl)-1-phenylcyclobutane-1-carboxamide], the MIC in data set [1] (setting [2]) and in data set [1] (setting [3]) was over 20 µM each time. Further, the “microsomal clearance / stability (in words)” value in “in vitro” was “improved clearance”. In addition, the CLint scaled at 0.5 µM in the data set “in vitro” was 69.7 L/h/kg.

As for `Cc1ccccc1C1(C(=O)NCCc2cccc(Br)c2)CCC1` [PCB-23, N-(3-bromophenethyl)-1-(o-tolyl)cyclobutane-1-carboxamide], the MIC amounted to 1.3 ± 0.5 µM (≈ 0.484 µg/mL) in data set [1] (setting [2]), 1.3 µM (≈ 0.484 µg/mL) in data set [1] (setting [4]) and 1.3 µM (≈ 0.484 µg/mL) in data set [1] (setting [3]). This molecule also had a CLint scaled at 0.5 µM in “in vitro” of 391 L/h/kg.

With `COc1ccc(CCNC(=O)C2(c3ccccc3Cl)CCC2)cc1-c1ccccc1` [PCB-27, 1-(2-chlorophenyl)-N-(2-(6-methoxy-[1,1'-biphenyl]-3-yl)ethyl)cyclobutane-1-carboxamide], the MIC in data set [1] (setting [2]) was determined as 3.6 ± 1.3 µM (≈ 1.51 µg/mL). In the data set “in vitro”, the “microsomal clearance / stability (in words)” value is listed as “much higher clearance” and the CLint scaled at 0.5 µM was 1680 L/h/kg.

For the molecule `O=C(N1CCCCC1)N1CCC(c2ccccc2)CC1` [Molecule 4PP-12, (4-Phenylpiperidin-1-yl)(piperidin-1-yl)methanone], in data set [1], the “anti-tubercular activity (in words)” value is on record as “lost activity”. Besides, in data set [1] (setting [2]), the MIC is over 20 µM.

With `CC(C)(C)c1ccc(C2CCN(C3CCCCC3)CC2)cc1` [Molecule 4PP-16, 4-(4-t-Butyl-phenyl)-1-cyclohexyl-piperidine, hydrochloride], the MIC in data set [1] (setting [2]) amounted to 2.7 ± 0.8 µM; in data set [1] (setting [3]), 2.7 µM.

Consider `CCC1(N2CCC(c3ccc(C(C)(C)C)cc3)CC2)CCCCC1` [Molecule 4PP-2, 4-(4-tert-Butyl-phenyl)-1-(1-ethyl-cyclohexyl)-piperidine], for which the MIC stood at 2 ± 0.5 µM (≈ 0.655 µg/mL) in data set [1] (setting [2]) and 2 µM (≈ 0.655 µg/mL) in data set [1] (setting [3]).

With `CC(C)(C)CC(C)(C)N1CC=C(c2c[nH]c3ccccc23)CC1` [Molecule 4PP-47, 3-(1-(2,4,4-Trimethylpentan-2-yl)-1,2,3,6-tetrahydropyridin-4-yl)-1H-indole], the MIC in data set [1] (setting [2]) is 9.6 ± 2.2 µM (≈ 2.98 µg/mL); in data set [1] (setting [3]), 9.6 µM (≈ 2.98 µg/mL).

On to `CC(C)(C)CC(C)(C)N1CCC(c2ccc(C(C)(C)C)cc2)CC1` [Molecule 4PP-43, 4-(4-t-Butyl-phenyl)-1-(1,1,3,3-tetramethyl-butyl)-piperidine], for which the results for the MIC in data set [1] and in data set [1] (setting [2]) were 5.2 ± 1.9 µM (≈ 1.71 µg/mL) and 5.9 µM (≈ 1.94 µg/mL), respectively.

On to `COC(=O)C1(c2ccccc2)CCN(CC2CCCCC2)CC1` [Molecule 4PP-39, Methyl 1-(cyclohexylmethyl)-4-phenyl-piperidine-4-carboxylate; 2,2,2-trifluoroacetic acid], for which the MIC in data set [1] (setting [2]) is over 20 µM.

On to `O=C(NC1CCCCC1)N1CCC(c2ccccc2)CC1` [Molecule 4PP-13, N-cyclohexyl-4-phenylpiperidine-1-carboxamide], for which the “anti-tubercular activity (in words)” value in data set [1] is given as “did not furnish activity”. In addition, the MIC in data set [1] (setting [2]) was over 20 µM.

In the case of `CN(C)C1CCC(N2CCC(c3ccccc3)CC2)CC1` (stereo not shown) [Molecule 4PP-21, N,N-dimethyl-4-(4-phenylpiperidin-1-yl)cyclohexan-1-amine], the “anti-tubercular activity (in words)” value in data set [1] is “loss of activity”. Moreover, the MIC in data set [1] (setting [2]) was over 20 µM.

Consider `COc1ccc(C2CCN(CC3CCCCC3)CC2F)cc1.O=C(O)C(F)(F)F` (stereo not shown) [Molecule 4PP-53, 1-(Cyclohexylmethyl)-3-fluoro-4-(4-methoxyphenyl)piperidine; 2,2,2-trifluoroacetic acid], for which the “anti-tubercular activity (in words)” value in data set [1] is “not tolerated”. Besides, the MIC in data set [1] (setting [2]) was over 20 µM.

For the molecule `CC(C)(C)NC(=O)N1CCC(c2ccccc2)CC1` [Molecule 4PP-11, N-(tert-butyl)-4-phenylpiperidine-1-carboxamide], in data set [1], the “anti-tubercular activity (in words)” value is reported as “lost activity”. Further, in data set [1] (setting [2]), the MIC was over 20 µM.

In the case of `N#Cc1ccc(C2CCN(CC3CCCCC3)CC2)cc1.O=C(O)C(F)(F)F` [Molecule 4PP-30, 4-[1-(Cyclohexylmethyl)-4-piperidyl]benzonitrile; 2,2,2-trifluoroacetic acid], in data set [1], the “anti-tubercular activity (in words)” value is “inactive”. In addition, the MIC in data set [1] (setting [2]) was over 20 µM.

The molecule `CC(=O)c1ccc(NC(=O)NC(C)C23CC4CC(CC(C4)C2)C3)cc1` (stereo not shown) [HBU-3] yielded an IC90 in data set [1] (Mycobacterium tuberculosis) of 29 µM.

Regarding `CC(=O)C1(c2ccccc2)CCN(CC2CCCCC2)CC1` [Molecule 4PP-36, 1-[1-(Cyclohexylmethyl)-4-phenyl-4-piperidyl]ethanone], in data set [1] (setting [2]), the MIC is over 20 µM.

Source of the values: publication PMC9435431, “Novel chemical entities inhibiting Mycobacterium tuberculosis growth identified by phenotypic high-throughput screening” (Scientific Reports, 2022).
